According to PMC5267425, “Identification of small molecule modulators of HIV-1 Tat and Rev protein accumulation” (Retrovirology, 2017):

Key:
[1] = system: HIV-1 gene expression in HeLa rtTA HIV∆Mls cells; assay: HIV-1 gene expression / virion production by p24 antigen ELISA, Dox-inducible provirus; assay type: cell-based; settings: for reduction of HIV-1 viral production relative to DMSO (+Dox): 791 30 µM, 833 2 µM, 892 15 µM, 24 h (Fig. 1); for IC50: Human immunodeficiency virus 1, HeLa
Description: (§1) Effects of compound treatment on HIV-1 gene expression were initially assessed in the context of HeLa rtTA HIV∆Mls cells stably transduced with an inducible Tet-On HIV-1 system (as previously described). The provirus was modified by either deletion in the reverse transcriptase and integrase region of the pol gene by an MlsI restriction digest (HeLa rtTA HIV∆Mls cell line) or GFP fusion to Gag, deleting the PR and RT-coding regions (HeLa rtTA HIVGagGFP cell line). […] All cell lines were maintained in Iscove’s modified Delbecco’s medium (IMDM; Wisent) supplemented with 10% (vol/vol) fetal bovine serum (FBS, Wisent), 1% penicillin/streptomycin (P/S, Wisent) and 0.2% Amphotericin B (Wisent). Indicator cell line CEM-GXR was obtained from Dr. Mark Brockman (Simon Fraser University). The RTI-resistant virus (E00443) was obtained from Dr. Zabrina Brumme (Simon Fraser University). The HIV-1 clade A (97USSN54 (N54)), HIV-1 clade B (IIIB), integrase inhibitor resistant virus (11845), protease inhibitor resistant virus (2948) were obtained through the NIH AIDS Research and Reference reagent program, Division of AIDS, NIAID, NIH).
The compounds used in the treatment assay were obtained from ChemBridge. All compounds were solubilized to 10 mM or 1 mM stock concentrations in dimethyl sulfoxide (DMSO) and stored at −20 °C for subsequent experiments. Cells were incubated for 3–5 h in the presence of the compounds prior to induction with doxycycline (Dox) at a final concentration of 2 μg/mL. 24 h post compound treatment, culture medium was harvested, adjusted to 1% Triton X-100, and incubated at 37 °C for 1 h for p24 antigen ELISA. Cells were harvested in 2 mM EDTA, 1xPBS. RNA was isolated using Aurum Total RNA extraction kits (Bio-Rad), while total protein was extracted with RIPA buffer (1% NP-40, 0.1% SDS, 0.5% sodium deoxycholate, 150 mM NaCl, 50 mM Tris–HCl).
ELISA for p24 Gag antigen was performed on cell supernatants using kits purchased from Frederick National Laboratory for Cancer Research (Leidos) or XpressBio extended range kit and performed according to manufacturer’s instructions. Protein concentration in cell lysates was quantified by Bradford assay and equal amounts of protein run on 7, 10, 12, or 14% SDS-PAGE, depending on the protein of interest. Following transfer to PVDF (BioRad or Perkin-Elmer), blots were blocked in either 5% Milk-PBS-T (5% Milk, 0.05% Tween-20, 1× PBS) or 3% BSA-PBS-T (3% BSA, 0.05% Tween-20, 1× PBS) prior to incubating with primary antibody (all diluted in 3% BSA-PBS-T). Primary antibodies used were: purified mouse anti-p24 supernatant from anti-HIV-1 Gag hybridoma 183, mouse anti-gp120 hybridoma 902 (NIH AIDS Reagent Program), mouse monoclonal antibody to HIV-1 Rev (Abcam), rabbit polyclonal antibody to HIV-1 Tat (Abcam), mouse monoclonal antibody to p53 (Santa Cruz), rabbit purified IgG for Nap1 (provided by L. Frappier), rabbit polyclonal antibody to GAPDH (Sigma-Aldrich), or mouse monoclonal antibody to α-Tubulin (Sigma-Aldrich). Following incubation with appropriate secondary antibody, blots were visualized by ECL, ECL Plus (Perkin-Elmer), or Clarity Western ECL substrate (BioRad). Quantification of the relative intensity of the detected bands was done using ImageLab software and normalized to corresponding bands of the loading control (GAPDH or α-Tubulin).

[2] = system: HIV-1 clade A (N54), clade B (IIIB), PRI-, RTI- and INI-resistant strains; assay: HIV-1 replication in CEM-GXR cells (GFP positive cells, flow cytometry); assay type: cell-based; settings: for IC50: Human immunodeficiency virus 1, IIIB, CEM-GXR; for HIV-1 replication of all viruses tested: clade A N54, clade B IIIB, PRI-, RTI-, INI-resistant strains
Description: as §1
To assess the activity of compounds against HIV-1 strains having resistance to various ART drugs, assays were performed in the context of CEM-GXR cells. These cells express CD4, CXCR4, and coreceptor, CCR5 as well as an exogenous Tat-driven LTR-GFP expression cassette. Cultures were infected with different HIV-1 strains of interest, differing on their subtypes (A and B), and resistance to three major drug targets (reverse transcriptase, protease, and integrase). The culture contains serial dilutions of the molecule in the final concentrations from 0.156 to 5 μM for 833; 725 nM to 46.87 μM for 791; 1.95 to 62.5 μM for 892. Antiviral activity was evaluated in the assay by measuring inhibition of HIV-1 spread in a coculture of CEM-GXR cells containing 1% of HIV-1 infected (GFP positive) cells using flow cytometric analysis (GuavaSoft 2.2 software, Guava HT8, Millipore). To estimate the viable cell counts, the gate in a flow cytometer (Guava HT8) was set to cover 95% of the freshly passaged uninfected CEM-GXR cell or using ViaCount™. The same parameter was employed to gate viable cells in the inhibition assay and the number of gated cells was obtained by GuavaSoft 2.2 software. For assays using ViaCount™, sample acquisition and data analysis were performed with the selection of EasyFit analysis feature using the ViaCount™ software module.

| SMILES | reduction in Gag expression ([1]; 1.5 µM) | reduction of HIV-1 viral production relative to DMSO (+Dox) [1] | IC50 [1] | IC50 [2] | HIV-1 replication of all viruses tested [2] |
| --- | --- | --- | --- | --- | --- |
| O=C(NC(=S)NNC(=O)c1ccccc1O)c1ccc(-c2ccccc2)cc1 [Compound 833, N-([2-(2-hydroxybenzoyl)hydrazino]carbonothioyl}-4-biphenylcarboxamide] | 90% | 80–90% | 600 nM | 1000 nM | significant reductions |
| Cc1cc(NCc2cccnc2)n2ncc(-c3ccc(Cl)cc3)c2n1 [Compound 791, 3-(4-chlorophenyl)-5-methyl-N-(3-pyridinylmethyl)pyrazolo[1,5-a]pyrimidin-7-amine] |  | 80–90% | 8200 nM | 4500 nM | significant reductions |
| COc1ccc(C=NNC(=O)c2ccccc2O)cc1O [Compound 892, 2-hydroxy-N′-(3-hydroxy-4-methoxybenzylidene)benzohydrazide] |  | 80–90% | 1800 nM |  | only modest inhibitory activity |
